The text below walks through data of US11446287B2, “Compounds and methods for EP300 or CBP modulation and indications therefor” (Opna Immuno-Oncology SA, priority 2019, dated 2022).

For the assay, the target named is T1, Recombinant human EP300 containing the bromodomain (EP300-BD (1040-1161)) (Homo sapiens, UniProt Q09472).
T1 construct: Recombinant human EP300 bromodomain (EP300-BD (1040-1161)); made in house; host or cells: E. coli BL21-CodonPlus (DE3), modified pET vector
T1 sequence (Q09472 1040-1161): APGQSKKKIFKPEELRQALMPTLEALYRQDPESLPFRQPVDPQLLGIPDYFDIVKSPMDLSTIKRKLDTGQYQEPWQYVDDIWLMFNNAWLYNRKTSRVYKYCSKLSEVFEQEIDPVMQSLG
The assay can be described thus: EP300 Alphascreen binding assay. The method in brief: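 Displacement of a biotinylated acetyl-K56 histone H3 peptide from the N-His bromodomain construct (1040-1161) measured by AlphaScreen proximity, beads at 7.5 μg/ml final, read 60 min after addition. Protein, peptide and compound first incubated 1 h at room temperature, pH 7.5 HEPES buffer; IC50 by four-parameter logistic fit.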
On the technique in general: Alpha assays give light when donor and acceptor beads are brought close together.

As a reminder, the IC50 is the midpoint of a concentration-inhibition curve.

For `Cc1noc(C)c1-c1cnc2c(-c3ccc(C(=O)O)c(F)c3)c(C(F)(F)F)n([C@@H](C)c3ccccn3)c2c1` [P-0242, (S)-4-(6-(3,5-dimethylisoxazol-4-yl)-1-(1-(pyridin-2-yl)ethyl)-2-(trifluoromethyl)-1H-pyrrolo[3,2-b]pyridin-3-yl)-2-fluorobenzoic acid], the 50% inhibitory concentration (IC50) is 1 to 8 µM.
